From patent publication US20130109721A1, “FAAH Inhibitors” (Ironwood Pharmaceuticals, Inc., priority 2009, published 2013)

Target: T1, FAAH (Homo sapiens, UniProt O00519)
T1 construct: FAAH activity was assayed in the respective homogenates described herein (Rat brain, Mouse brain or Human brain); tissue Analytical Biological Services (ABS), Inc; host or cells: human brain cortex membrane homogenate
T1 sequence (O00519 1-579): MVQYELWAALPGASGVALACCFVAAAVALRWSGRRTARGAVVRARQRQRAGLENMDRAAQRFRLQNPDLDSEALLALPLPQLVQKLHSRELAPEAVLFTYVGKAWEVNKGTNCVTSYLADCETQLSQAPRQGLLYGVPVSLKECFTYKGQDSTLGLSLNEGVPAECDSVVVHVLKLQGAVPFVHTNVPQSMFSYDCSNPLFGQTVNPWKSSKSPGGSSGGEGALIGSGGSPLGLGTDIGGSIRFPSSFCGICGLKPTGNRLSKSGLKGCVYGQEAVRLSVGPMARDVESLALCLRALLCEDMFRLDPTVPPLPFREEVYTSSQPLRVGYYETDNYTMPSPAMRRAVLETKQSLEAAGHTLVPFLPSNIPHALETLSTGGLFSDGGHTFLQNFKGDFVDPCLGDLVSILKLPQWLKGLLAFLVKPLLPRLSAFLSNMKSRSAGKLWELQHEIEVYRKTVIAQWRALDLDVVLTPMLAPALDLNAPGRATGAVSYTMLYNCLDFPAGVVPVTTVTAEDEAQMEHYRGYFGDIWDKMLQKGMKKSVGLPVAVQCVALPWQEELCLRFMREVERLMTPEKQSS
Test: FAAH inhibition, human brain membrane homogenate assay
Type: biochemical
Conditions: average; FAAH extracted from human brain homogenate; read-out: Human brain FAAH Extract IC50
Protocol: About 10 g of frozen normal human brain cortex tissue was obtained (e.g., from Analytical Biological Services (ABS), Inc. (Wilmington, Del.)). The brain tissue was thawed and transferred to a large ceramic mortar on ice. 50 mL of ice-cold “homogenization buffer” (20 mM HEPES buffer, pH 7.0, with 1 mM MgCl2) was added to the mortar and the tissue was homogenized with a pestle. The homogenate was centrifuged at 36,500 g for 20 minutes at 4° C. The supernatants were discarded and the pellets were re-suspended in homogenization buffer and centrifuged as before. The supernatants were again discarded and the pellets were re-suspended in 30 mL homogenization buffer and incubated in a 37° C. water bath for 20 minutes. The homogenate was then centrifuged as before. The supernatant was discarded and the membrane pellets were re-suspended in 30 mL “resuspension buffer” (50 mM Tris-HCl buffer, pH 7.4, containing 1 mM EDTA and 3 mM MgCl2). A Bradford Protein assay was performed to determine protein concentration. The protein was aliquotted into screw cap Cryo tubes each containing ˜200 μL, flash frozen in liquid nitrogen and stored at −80° C. until used for the assay.
FAAH activity was assayed in the respective homogenates described herein (Rat brain, Mouse brain or Human brain) for certain exemplary substrate compounds using a modification of the method of Omeir et al. (1995 Life Sci 56:1999) and Fowler et al. (1997 J. Pharmacol Exp Ther 283:729). For assay of FAAH activity in rat brain membrane (RBM) homogenates, RBM homogenates (7 μg protein in 20 μL final volume of 10 mM Tris pH 6.5) were mixed with 180 μL of a mixture of the following: 2.0 μM unlabelled anandamide, 0.03 μCi radio labeled anandamide [ethanolamine 1-^3H] (40-60 Cis/mmol, product number ART-626, American Radiolabeled Chemicals, St. Louis, Mo.), 1 mg/mL Bovine Serum Albumin (fatty acid-free BSA, electrophoresis grade, Sigma, St. Louis, Mo.), 10 mM Tris-HCl (pH 6.5), and 1 mM EDTA in the presence and absence of test compounds (vehicle was DMSO at a final concentration of 1%) and incubated for 10 minutes at 37° C. Samples were placed on ice to terminate the reactions.
^3H-ethanolamine product and un-reacted ^3H-anandamide substrate were then separated either: (1) by using chloroform/methanol extraction or (2) by passing the reaction mixture through a glass fiber filter containing activated charcoal. Samples were extracted with chloroform/methanol by adding 0.4 mL of chloroform/methanol (1:1 v/v), vigorously mixing the samples, and separating the aqueous and organic phases by centrifugation. Radioactivity (corresponding to FAAH-catalyzed breakdown of ^3H-anandamide) found in aliquots (0.2 mL) of the aqueous phase was determined by liquid scintillation counting with quench correction. IC50 values were determined as described by Jonsson et al. (2001 Br. J. Pharmacol. 133:1263). Alternatively, reactions were purified using a modification of the solid-phase extraction method described by Wilson et al (2003 Anal. Biochem. 318:270). This method was modified as follows: after reactions were incubated at 37° C. for 10 minutes and chilled on ice, the reaction mixtures were acidified by adding 10 μL of sodium phosphate solution [0.5M (pH 2.0)]. Next, 90 μL aliquots of the acidified reaction mixtures were applied to activated charcoal (that had been previously washed with methanol as described by Wilson et al. (supra)) containing 80 μL of water on top of a glass fiber filter, centrifuged, and the radioactivity in the eluate was counted as described previously by Wilson et al. (supra).
Table 1 provides activity data for certain compounds tested for inhibition of FAAH using the FAAH rat, mouse and human brain homogenate assays. […]

Compound	IC50 [nM]
Cc1cc(C(=O)C(=O)Nc2ccccc2)c(C)n1Cc1ccc(Cl)cc1 [Compound I-32, 2-(1-(4-chlorobenzyl)-2,5-dimethyl-1H-pyrrol-3-yl)-2-oxo-N-phenylacetamide]	> 5000
Cc1cc2c(s1)c(C(=O)C(=O)Nc1ccncc1)c(C)n2Cc1ccc(Cl)cc1 [Compound I-04, 2-(4-(4-chlorobenzyl)-2,5-dimethyl-4H-thieno[3,2-b]pyrrol-6-yl)-2-oxo-N-(pyridin-4-yl)acetamide]	51
Cc1c(C(=O)C(=O)Nc2ccncc2)c2cc(Cl)sc2n1Cc1ccc(Cl)cc1 [Compound I-02, 2-(2-chloro-6-(4-chlorobenzyl)-5-methyl-6H-thieno[2,3-b]pyrrol-4-yl)-2-oxo-N-(pyridin-4-yl)acetamide]	97
COc1cc(NC(=O)C(=O)c2c(C)n(Cc3ccc(Cl)cc3)c3ccsc23)ccn1 [Compound I-07, 2-(4-(4-chlorobenzyl)-5-methyl-4H-thieno[3,2-b]pyrrol-6-yl)-N-(2-methoxypyridin-4-yl)-2-oxoacetamide]	18
COc1cc(NC(=O)C(=O)c2cc(C)n(Cc3ccc(Cl)cc3)c2C)ccn1 [Compound I-01, 2-(1-(4-chlorobenzyl)-2,5-dimethyl-1H-pyrrol-3-yl)-N-(2-methoxypyridin-4-yl)-2-oxoacetamide]	542
COc1cc(NC(=O)C(=O)c2cc(C)n(Cc3ccc(F)cc3)c2C)ccn1 [Compound I-17, 2-(1-(4-fluorobenzyl)-2,5-dimethyl-1H-pyrrol-3-yl)-N-(2-methoxypyridin-4-yl)-2-oxoacetamide]	1220
Cc1cc(C(=O)C(=O)Nc2ccncc2)c(C)n1Cc1ccc(Cl)cc1 [Compound I-30, 2-(1-(4-chlorobenzyl)-2,5-dimethyl-1H-pyrrol-3-yl)-2-oxo-N-(pyridin-4-yl)acetamide]	3400
Cc1cc(C(=O)C(=O)Nc2ccnc(Cl)c2)c(C)n1Cc1ccc(Cl)cc1 [Compound I-28, 2-(1-(4-chlorobenzyl)-2,5-dimethyl-1H-pyrrol-3-yl)-N-(2-chloropyridin-4-yl)-2-oxoacetamide]	897
COc1cc(NC(=O)C(=O)c2c(C)n(Cc3ccc(Cl)cc3)c3cc(C)sc23)ccn1 [Compound I-05, 2-(4-(4-chlorobenzyl)-2,5-dimethyl-4H-thieno[3,2-b]pyrrol-6-yl)-N-(2-methoxypyridin-4-yl)-2-oxoacetamide]	4
Cc1cc(C(=O)C(=O)Nc2cccnc2)c(C)n1Cc1ccc(Cl)cc1 [Compound I-31, 2-(1-(4-chlorobenzyl)-2,5-dimethyl-1H-pyrrol-3-yl)-2-oxo-N-(pyridin-3-yl)acetamide]	3200
COc1cc(NC(=O)C(=O)c2c(C)n(Cc3ccc(Cl)cc3)c3sc(Cl)cc23)ccn1 [Compound I-03, 2-(2-chloro-6-(4-chlorobenzyl)-5-methyl-6H-thieno[2,3-b]pyrrol-4-yl)-N-(2-methoxypyridin-4-yl)-2-oxoacetamide]	94
Cc1c(C(=O)C(=O)Nc2cccc(Cl)c2)c2sccc2n1Cc1ccc(Cl)cc1 [Compound I-06, 2-(4-(4-chlorobenzyl)-5-methyl-4H-thieno[3,2-b]pyrrol-6-yl)-N-(3-chlorophenyl)-2-oxoacetamide]	1500
COc1cc(NC(=O)C(=O)c2cc(-c3ccccc3)n(Cc3ccc(Cl)cc3)c2C)ccn1 [Compound I-27, 2-(1-(4-chlorobenzyl)-2-methyl-5-phenyl-1H-pyrrol-3-yl)-N-(2-methoxypyridin-4-yl)-2-oxoacetamide]	> 50000
